Values of other authors, collected in patent US9056184B2, “Methods for renal denervation” (priority 2010, dated 2015).
pKd: −log10 of the molar value.

Columns and labels:
[1] = biological target: tetrodotoxin-sensitive voltage-gated sodium channel (TTX-s Na+ channel); settings: read-out: binding affinity
[2] = biological target: tetrodotoxin-resistant voltage-gated sodium channel (TTX-r Na+ channel)
CYP3A4 = settings: in vivo
[3] = after initiation of therapy
[4] = in vivo

NC1=N[C@H](O)[C@H]2[C@H]3O[C@]4(O)O[C@@H]([C@@H](O)[C@@]2(N1)[C@@H]4O)[C@]3(O)CO [Tetrodotoxin]
pKd [1]: 7.82 to 8.30
binding affinity [2]: low micromolar

NC(=O)N1c2ccccc2C=Cc2ccccc21 [carbamazepine, Carbamazepine]
time for auto-induction to reach a plateau (CYP3A4): 5 to 7 days
time to stable carbamazepine concentrations [3]: 2-3 weeks

[Li] [lithium]
toxic amounts [4]: > 1.5 mmol/L
